Experimental data as given in patent US20170253607A1, “LONG-ACTING HIV PROTEASE INHIBITOR” (Shionogi & Co., Ltd., priority 2014, published 2017).

Target: HIV-1 PR (Human immunodeficiency virus type 1 group M subtype B, UniProt P04585)
Experiment: HIV-protease inhibitory activity assay (FRET peptide substrate)
Format: biochemical
Conditions: Test Example 1
In short: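 Fluorescence recovery at ex 485/em 535 nm reports cleavage of a quenched FRET peptide (2 μmol/L final) by 0.83 ng enzyme over 60 minutes at room temperature. Buffer was NaAc pH 4.8 with NaCl, EDTA, DTT and Tween 20. IC50 values came from four-parameter logistic regression of % inhibition.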

`COc1ccc(S(=O)(=O)N(CC(C)C)CC(O)C(Cc2ccc(N(C)Cc3cc4c(cc3-c3sc5c(c3C(=O)O)CC(C)(C)CC5)OCC(=O)N4C)cc2)NC(=O)OC2COC3(C)OCCC23)cc1` (stereo not drawn) [Compound I-768] and `COc1ccc(S(=O)(=O)N(CC(C)C)CC(O)C(Cc2ccc(N(C)Cc3cccc(F)c3-c3sc4c(c3C(=O)O)CC(C)(C)CC4)cc2)NC(=O)OC2COC3(C)OCCC23)cc1` (stereo not drawn) [Compound I-493] are within 1.5-fold of each other in IC50: 2.95 nM for the first, 2.43 nM for the second.

First: COc1ccc(S(=O)(=O)N(CC(C)C)CC(O)C(Cc2ccc(-c3sc4c(c3C(=O)O)CC(C)(C)CC4)cc2)NC(=O)OC2COC3(C)OCCC23)cc1 (stereo not drawn) [Compound I-41]
Second: COc1ccc(S(=O)(=O)N(CC(C)C)CC(O)C(Cc2ccc(NCc3cncc(-c4sc5c(c4C(=O)O)CC(C)(C)CC5)c3)cc2)NC(=O)OC2COC3(C)OCCC23)cc1 (stereo not drawn) [Compound I-557]
The IC50 of the first is 1.5-fold lower: 1.11 nM for the first, 1.67 nM for the second. The first is the more potent here.

`COc1ccc(S(=O)(=O)N(CC(C)C)CC(O)C(Cc2ccc(N(CCCCc3ccccc3)Cc3ccccc3-c3sc4c(c3C(=O)O)CC(C)(C)CC4)cc2)NC(=O)OC2COC3(C)OCCC23)cc1` (stereo not drawn) [Compound I-432] and `CCCCN(Cc1ccccc1-c1sc2c(c1C(=O)O)CC(C)(C)CC2)c1ccc(CC(NC(=O)OC2COC3(C)OCCC23)C(O)CN(CC(C)C)S(=O)(=O)c2ccc(OC)cc2)cc1` (stereo not drawn) [Compound I-457] are within 1.5-fold of each other in IC50: 8.42 nM for the first, 5.63 nM for the second.

`COc1ccc(S(=O)(=O)N(CC(C)C)CC(O)C(Cc2ccc(CN(C)C3CCCCC3c3sc4c(c3C(=O)O)CC(C)(C)CC4)cc2)NC(=O)OC2COC3(C)OCCC23)cc1` (stereo not drawn) [Compound I-341] and `COc1ccc(S(=O)(=O)N(CC(C)C)C[C@@H](O)[C@H](Cc2ccc(NC[C@@H]3CCCC[C@@H]3c3sc4c(c3C(=O)O)CC(C)(C)CC4)cc2)NC(=O)O[C@H]2CO[C@@]3(C)OCC[C@@H]23)cc1` [Compound I-246] are within 1.5-fold of each other in IC50: 1.89 nM for the first, 2.07 nM for the second.

`CC(C)CN(CC(O)C(Cc1ccc(OCc2cnc(C(=O)O)c(-c3ccc(F)cc3F)c2)cc1)NC(=O)OC1COC2(C)OCCC12)S(=O)(=O)c1ccc2ncsc2c1` (stereo not drawn) [Compound I-157] and `COc1ccc(S(=O)(=O)N(CC(C)C)CC(O)C(Cc2ccc(OCc3ccc(-c4ccc(F)cc4F)c(C(=O)O)c3)cc2)NC(=O)OC2COC3(C)OCCC23)cc1` (stereo not drawn) [Compound I-152] are within 1.5-fold of each other in IC50: 1.22 nM for the first, 1.15 nM for the second.

Compared with `COc1ccc(S(=O)(=O)N(CC(C)C)CC(O)C(Cc2ccc(NCc3ccc(C(=O)Nc4sc5c(c4C(=O)O)CC(C)(C)CC5)cc3)cc2)NC(=O)OC2COC3(C)OCCC23)cc1` (stereo not drawn) [Compound I-437], `COc1ccc(S(=O)(=O)N(CC(C)C)CC(O)C(Cc2ccc(NCc3cncc(C(=O)Nc4sc5c(c4C(=O)O)CC(C)(C)CC5)c3)cc2)NC(=O)OC2COC3(C)OCCC23)cc1` (stereo not drawn) [Compound I-443] is 2.4-fold lower in IC50: 4.42 nM for the first, 1.88 nM for the second. The second is the more potent here.

First: COc1ccc(S(=O)(=O)N(CC(C)C)CC(O)C(Cc2ccc(NCc3csc(-c4sc5c(c4C(=O)O)CC(C)(C)CC5)n3)cc2)NC(=O)OC2COC3(C)OCCC23)cc1 (stereo not drawn) [Compound I-295]
Second: COc1ccc(S(=O)(=O)N(CC(C)C)CC(O)C(Cc2ccc(NCC3=C(c4sc5c(c4C(=O)O)CC(C)(C)CC5)CCC3)cc2)NC(=O)OC2COC3(C)OCCC23)cc1 (stereo not drawn) [Compound I-381]
The IC50 of the first is 2.1-fold lower: 2.19 nM for the first, 4.69 nM for the second. The first is the more potent here.

`COc1ccc(S(=O)(=O)N(CC(C)C)CC(O)C(Cc2ccc(OCc3ccccc3-c3ccc4[nH]c(=O)c(-c5ccc(Oc6ccccc6)cc5)c(O)c4c3)cc2)NC(=O)OC2COC3(C)OCCC23)cc1` (stereo not drawn) [Compound I-180] and `COc1ccc(S(=O)(=O)N(CC(C)C)CC(O)C(Cc2ccc(OCc3ccccc3-c3c(OCc4ccccc4)noc3C(=O)O)cc2)NC(=O)OC2COC3(C)OCCC23)cc1` (stereo not drawn) [Compound I-344] are within 1.5-fold of each other in IC50: 2.71 nM for the first, 2.83 nM for the second.

`COc1ccc(S(=O)(=O)N(CC(C)C)CC(O)C(Cc2ccc(N3CCC(C(=O)N(C)c4sc5c(c4C(=O)O)CC(C)(C)CC5)C3)cc2)NC(=O)OC2COC3OCCC23)cc1` (stereo not drawn) [Compound I-863] and `COc1ccc(S(=O)(=O)N(CC(C)C)CC(O)C(Cc2ccc(N3CCC(c4sc5c(c4C(=O)O)CC(C)(C)CC5)CC3)cc2)NC(=O)OC2COC3(C)OCCC23)cc1` (stereo not drawn) [Compound I-227] are within 1.5-fold of each other in IC50: 2.55 nM for the first, 3.26 nM for the second.

`COc1ccc(S(=O)(=O)N(CC(C)C)CC(O)C(Cc2ccc(NCc3ccccc3NC(=O)Nc3sc4c(c3C(=O)O)CC(C)(C)CC4)cc2)NC(=O)OC2COC3(C)OCCC23)cc1` (stereo not drawn) [Compound I-779] and `COc1ccc(S(=O)(=O)N(CC(C)C)CC(O)C(Cc2ccc(NCc3ccccc3C(=O)Nc3sc4c(c3C(=O)O)CC(C)(C)CC4)cc2)NC(=O)OC2COC3(C)OCCC23)cc1` (stereo not drawn) [Compound I-397] are within 1.5-fold of each other in IC50: 2.74 nM for the first, 2.64 nM for the second.

`COc1ccc(S(=O)(=O)N(CC(C)C)CC(O)C(Cc2ccc(NCc3cc(C(=O)Nc4sc5c(c4C(=O)O)CC(C)(C)CC5)n(C)c3)cc2)NC(=O)OC2COC3(C)OCCC23)cc1` (stereo not drawn) [Compound I-445] and `COc1ccc(S(=O)(=O)N(CC(C)C)CC(O)C(Cc2ccc(NCc3cccc(F)c3C(=O)Nc3sc4c(c3C(=O)O)CC(C)(C)CC4)cc2)NC(=O)OC2COC3(C)OCCC23)cc1` (stereo not drawn) [Compound I-749] are within 1.5-fold of each other in IC50: 2.78 nM for the first, 2.33 nM for the second.

Compared with `COc1ccc(S(=O)(=O)N(CC(C)C)CC(O)C(Cc2ccc(NCc3ccccc3NC(=O)Nc3sc4c(c3C(=O)O)CC(C)(C)CC4)cc2)NC(=O)OC2COC3OCCC23)cc1` (stereo not drawn) [Compound I-884], `CC(C)CN(CC(O)C(Cc1ccc(NCc2ccccc2C(=O)Nc2sc3c(c2C(=O)O)CC(C)(C)CC3)cc1)NC(=O)OC1COC2OCCC12)S(=O)(=O)c1ccc2c(c1)OCO2` (stereo not drawn) [Compound I-854] is 1.6-fold higher in IC50: 2.03 nM for the first, 3.16 nM for the second. The first is the more potent here.

`COc1ccc(S(=O)(=O)N(CC(C)C)CC(O)C(Cc2ccc(NCc3c(C(=O)O)[nH]c4ccc(Cl)cc34)cc2)NC(=O)OC2COC3(C)OCCC23)cc1` (stereo not drawn) [Compound I-319] and `COc1ccc(S(=O)(=O)N(CC(C)C)CC(O)C(Cc2ccc(NCc3ccccc3-c3ccccc3C(=O)O)cc2)NC(=O)OC2COC3(C)OCCC23)cc1` (stereo not drawn) [Compound I-497] are within 1.5-fold of each other in IC50: 2.09 nM for the first, 1.96 nM for the second.

`COc1ccc(S(=O)(=O)N(CC(C)C)CC(O)C(Cc2ccc(NCc3cc(O)cc(-c4sc5c(c4C(=O)O)CC(C)(C)CC5)c3)cc2)NC(=O)OC2COC3(C)OCCC23)cc1` (stereo not drawn) [Compound I-562] and `COc1ccc(S(=O)(=O)N(CC(C)C)CC(O)C(Cc2ccc(NCCOc3ccccc3-c3sc4c(c3C(=O)O)CC(C)(C)CC4)cc2)NC(=O)OC2COC3(C)OCCC23)cc1` (stereo not drawn) [Compound I-619] are within 1.5-fold of each other in IC50: 1.98 nM for the first, 2.48 nM for the second.

Compared with `COc1ccc(S(=O)(=O)N(CC(C)C)CC(O)C(Cc2ccc(N3CCN(c4ccc(C#N)cc4-c4sc5c(c4C(=O)O)CC(C)(C)CC5)CC3)cc2)NC(=O)OC2COC3(C)OCCC23)cc1` (stereo not drawn) [Compound I-232], `COc1ccc(S(=O)(=O)N(CC(C)C)CC(O)C(Cc2ccc(NCc3cc(N4CCCCC4=O)ccc3-c3sc4c(c3C(=O)O)CC(C)(C)CC4)cc2)NC(=O)OC2COC3(C)OCCC23)cc1` (stereo not drawn) [Compound I-729] is 2.5-fold lower in IC50: 4.1 nM for the first, 1.64 nM for the second.

First: COc1ccc(S(=O)(=O)N(CC(C)C)CC(O)C(Cc2ccc(NCc3ccccc3-c3csc4c(C(=O)O)cccc34)cc2)NC(=O)OC2COC3(C)OCCC23)cc1 (stereo not drawn) [Compound I-898]
Second: COc1ccc(S(=O)(=O)N(CC(C)C)CC(O)C(Cc2ccc(NCc3ccccc3-c3cnc(-c4sc5c(c4C(=O)O)CC(C)(C)CC5)s3)cc2)NC(=O)OC2COC3(C)OCCC23)cc1 (stereo not drawn) [Compound I-766]
The IC50 of the first is 1.8-fold lower: 1.78 nM for the first, 3.28 nM for the second. The first is the more potent here.

First: COc1ccc(S(=O)(=O)N(CC(C)C)CC(O)C(Cc2ccc(OCc3ccccc3-c3ccc4c(c3)C(=O)C(C3CCCCC3)C4=O)cc2)NC(=O)OC2COC3(C)OCCC23)cc1 (stereo not drawn) [Compound I-72]
Second: COc1ccc(S(=O)(=O)N(CC(C)C)CC(O)C(Cc2ccc(OCc3ccccc3-c3ncc4c(c3C(=O)O)CC(C)(C)CC4)cc2)NC(=O)OC2COC3(C)OCCC23)cc1 (stereo not drawn) [Compound I-251]
The IC50 of the first is 1.6-fold lower: 1.45 nM for the first, 2.3 nM for the second.

Going from `COc1ccc(S(=O)(=O)N(CC(C)C)CC(O)C(Cc2ccc(N(Cc3ccccc3-c3sc4c(c3C(=O)O)CC(C)(C)CC4)CC(C)C)cc2)NC(=O)OC2COC3(C)OCCC23)cc1` (stereo not drawn) [Compound I-422] to `COc1ccc(S(=O)(=O)N(CC(C)C)CC(O)C(Cc2ccc(N(Cc3ccoc3)Cc3ccccc3-c3sc4c(c3C(=O)O)CC(C)(C)CC4)cc2)NC(=O)OC2COC3(C)OCCC23)cc1` (stereo not drawn) [Compound I-424], the IC50 falls from 8.58 nM to 5.41 nM (1.6-fold).

`CC(C)CN(CC(O)C(Cc1ccc(OCc2ccccc2-c2ccc3c(c2)C(=O)C(c2ccc(F)cc2)C3=O)cc1)NC(=O)OC1COC2(C)OCCC12)S(=O)(=O)c1ccc2c(c1)OCO2` (stereo not drawn) [Compound I-174] and `COc1ccc(S(=O)(=O)N(CC(C)C)CC(O)C(Cc2ccc(NCc3cc(Oc4cccc5cccnc45)ccc3-c3sc4c(c3C(=O)O)CC(C)(C)CC4)cc2)NC(=O)OC2COC3(C)OCCC23)cc1` (stereo not drawn) [Compound I-684] are within 1.5-fold of each other in IC50: 2.08 nM for the first, 2.83 nM for the second.

`COc1ccc(S(=O)(=O)N(CC(C)C)CC(O)C(Cc2ccc(NCc3nc(N4CCOCC4)sc3-c3sc4c(c3C(=O)O)CC(C)(C)CC4)cc2)NC(=O)OC2COC3(C)OCCC23)cc1` (stereo not drawn) [Compound I-738] and `COc1ccc(S(=O)(=O)N(CC(C)C)CC(O)C(Cc2ccc(NCC3CCCCN3C(=O)c3sc4c(c3C(=O)O)CC(C)(C)CC4)cc2)NC(=O)OC2COC3(C)OCCC23)cc1` (stereo not drawn) [Compound I-604] are within 1.5-fold of each other in IC50: 1.8 nM for the first, 2.19 nM for the second.

First: COc1ccc(S(=O)(=O)N(CC(C)C)CC(O)C(Cc2ccc(OCCn3ncc(C(=O)O)c3OC(C)C)cc2)NC(=O)OC2COC3(C)OCCC23)cc1 (stereo not drawn) [Compound I-309]
Second: COc1ccc(S(=O)(=O)N(CC(C)C)CC(O)C(Cc2ccc(N(C)CC3=C(c4sc5c(c4C(=O)O)CC(C)(C)CC5)CCC(F)(F)C3)cc2)NC(=O)OC2COC3(C)OCCC23)cc1 (stereo not drawn) [Compound I-706]
The IC50 of the first is 3.3-fold lower: 2 nM for the first, 6.62 nM for the second.

Compared with `CC(C)CN(CC(O)C(Cc1ccc(N(C)Cc2ccccc2C(=O)Nc2sc3c(c2C(=O)O)CC(C)(C)CC3)cc1)NC(=O)OC1COC2OCCC12)S(=O)(=O)c1ccc2c(c1)OCO2` (stereo not drawn) [Compound I-879], `COc1ccc(S(=O)(=O)N(CC(C)C)CC(O)C(Cc2ccc(OCc3ccccc3-n3nc(C(=O)O)c4c3CCC(C)(C)C4)cc2)NC(=O)OC2COC3OCCC23)cc1` (stereo not drawn) [Compound I-837] is 4.6-fold lower in IC50: 3.78 nM for the first, 0.82 nM for the second.

Work on `COc1ccc(S(=O)(=O)N(CC(C)C)CC(O)C(Cc2ccc(NC3CCCc4c(-c5sc6c(c5C(=O)O)CC(C)(C)CC6)cccc43)cc2)NC(=O)OC2COC3(C)OCCC23)cc1` (stereo not drawn) [Compound I-751] yielded an IC50 of 15.7 nM.
